US11123337B2, “4-methylsulfonyl-substituted piperidine urea compounds” (MYOKARDIA, INC., priority 2015, dated 2021)

Assays:
[1] = system: adult rat ventricular myocytes; test: Cardiomyocyte contractility assay (IonOptix edge detection, fractional shortening); assay type: cell-based; conditions: 1 Hz pacing
Experimental: Contractility of adult rat ventricular myocytes is determined by edge detection with an IonOptix contractility system. Aliquots of myocytes in Tyrode buffer (137 mM NaCl, 3.7 mM KCl, 0.5 mM MgCl2, 1.5 mM CaCl2), 4 mM HEPES, 11 mM glucose) are placed in a perfusion chamber (Series 20 RC-27NE; Warner Instruments), allowed to adhere to the coverslip, and then perfused with 37° C. Tyrode buffer. Myocytes are filed stimulated at 1 Hz and 10V. Only myocytes with clear striations, quiescent prior to pacing, with a cell length of 120-180 microns, a basal fractional shortening equal to 3-8% of the cell length, and a contraction velocity greater than 100 microns per second are used for contractility experiments. To determine the response to compounds, myocytes are first perfused for 60 seconds with Tyrodes buffer followed by 5 minutes of compound and a 140 second washout with Tyrodes buffer. Data is continuously recorded using IonOptix software. Contractility data is analyzed using Ionwizard software (IonOptix). For each cell, 10-20 contractility transients were averaged and compared under basal (no compound) and compound-treated conditions. Compound activity is measured by effects on fractional shortening (FS), where fractional shortening is the ratio of the peak length of the cell at contraction divided by the basal cell length normalized to 100% for an untreated cell.

[2] = biological target: bovine cardiac myosin (Bos taurus, UniProt Q9BE39); test: Myosin activation assay (PK/LDH-coupled ATPase, bovine cardiac myofibrils); assay type: biochemical; conditions: AC20 = concentration at which total response is increased by twenty percent
Procedure, shortened: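 Values are the concentrations raising the ATPase rate by 20% or 50% over DMSO, from 10-point dose responses fitted with four parameters. Rate is NADH loss at 340 nm via PK/LDH coupling, read 15 min at room temperature, in pH 6.8 PIPES with 50 μM ATP. Bovine cardiac myofibrils were held at pCa ~6 or pCa 10.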

Chain of bovine cardiac myosin (Q9BE39 whole entry): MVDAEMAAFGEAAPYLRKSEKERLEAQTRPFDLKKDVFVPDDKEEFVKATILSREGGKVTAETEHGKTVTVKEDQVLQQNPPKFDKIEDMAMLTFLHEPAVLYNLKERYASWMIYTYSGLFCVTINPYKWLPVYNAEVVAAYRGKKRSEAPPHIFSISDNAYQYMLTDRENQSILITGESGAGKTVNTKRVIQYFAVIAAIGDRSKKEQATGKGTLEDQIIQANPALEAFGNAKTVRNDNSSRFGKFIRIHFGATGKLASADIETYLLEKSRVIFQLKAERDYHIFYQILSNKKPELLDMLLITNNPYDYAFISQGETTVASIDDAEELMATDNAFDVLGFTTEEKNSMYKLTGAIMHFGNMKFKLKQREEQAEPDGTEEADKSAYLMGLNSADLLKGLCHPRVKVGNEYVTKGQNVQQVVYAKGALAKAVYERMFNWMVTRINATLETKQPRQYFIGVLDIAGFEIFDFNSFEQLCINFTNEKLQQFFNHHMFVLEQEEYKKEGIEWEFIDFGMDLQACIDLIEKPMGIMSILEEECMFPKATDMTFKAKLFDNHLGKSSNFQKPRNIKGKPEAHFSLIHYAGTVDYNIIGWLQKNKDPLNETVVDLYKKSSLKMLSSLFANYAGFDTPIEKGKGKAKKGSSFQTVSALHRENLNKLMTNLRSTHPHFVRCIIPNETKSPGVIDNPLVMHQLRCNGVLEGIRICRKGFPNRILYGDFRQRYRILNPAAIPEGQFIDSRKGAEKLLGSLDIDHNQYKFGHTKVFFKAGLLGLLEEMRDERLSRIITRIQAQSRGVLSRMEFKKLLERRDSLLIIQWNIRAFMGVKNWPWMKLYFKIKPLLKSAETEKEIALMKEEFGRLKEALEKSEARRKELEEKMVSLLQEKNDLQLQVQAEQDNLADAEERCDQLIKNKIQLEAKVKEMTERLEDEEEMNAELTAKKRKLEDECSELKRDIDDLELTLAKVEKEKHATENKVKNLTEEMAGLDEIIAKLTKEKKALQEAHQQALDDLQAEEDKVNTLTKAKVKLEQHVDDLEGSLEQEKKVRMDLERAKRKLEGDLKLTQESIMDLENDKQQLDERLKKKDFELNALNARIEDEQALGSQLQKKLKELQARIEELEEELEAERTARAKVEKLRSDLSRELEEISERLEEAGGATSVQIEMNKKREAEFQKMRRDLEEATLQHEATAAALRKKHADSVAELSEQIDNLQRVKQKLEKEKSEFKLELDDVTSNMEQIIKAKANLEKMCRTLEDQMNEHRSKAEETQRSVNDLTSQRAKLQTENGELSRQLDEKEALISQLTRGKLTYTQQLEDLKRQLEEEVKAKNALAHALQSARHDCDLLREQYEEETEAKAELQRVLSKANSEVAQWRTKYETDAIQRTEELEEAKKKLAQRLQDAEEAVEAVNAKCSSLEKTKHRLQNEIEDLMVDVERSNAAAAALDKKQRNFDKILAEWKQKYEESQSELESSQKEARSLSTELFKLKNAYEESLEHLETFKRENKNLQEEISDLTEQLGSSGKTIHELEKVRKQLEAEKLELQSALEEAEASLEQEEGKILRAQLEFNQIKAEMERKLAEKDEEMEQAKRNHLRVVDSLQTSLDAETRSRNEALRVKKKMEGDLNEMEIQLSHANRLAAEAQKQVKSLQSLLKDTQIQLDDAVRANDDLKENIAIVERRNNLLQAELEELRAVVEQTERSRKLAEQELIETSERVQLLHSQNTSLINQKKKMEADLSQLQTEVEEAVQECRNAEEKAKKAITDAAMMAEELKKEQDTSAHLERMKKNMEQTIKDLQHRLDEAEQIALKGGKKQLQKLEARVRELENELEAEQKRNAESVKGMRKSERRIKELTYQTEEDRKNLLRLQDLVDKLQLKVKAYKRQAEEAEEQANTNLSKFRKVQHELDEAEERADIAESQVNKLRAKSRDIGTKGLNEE
Chain of bovine cardiac myosin (P85100 whole entry partner): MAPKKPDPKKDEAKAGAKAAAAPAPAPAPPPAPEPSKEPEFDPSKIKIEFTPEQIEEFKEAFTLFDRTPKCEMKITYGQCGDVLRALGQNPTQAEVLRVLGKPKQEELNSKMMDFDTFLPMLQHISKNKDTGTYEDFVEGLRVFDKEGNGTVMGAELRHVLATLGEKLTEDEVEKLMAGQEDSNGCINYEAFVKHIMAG
Chain of bovine cardiac myosin (Q3SZE5 whole entry partner): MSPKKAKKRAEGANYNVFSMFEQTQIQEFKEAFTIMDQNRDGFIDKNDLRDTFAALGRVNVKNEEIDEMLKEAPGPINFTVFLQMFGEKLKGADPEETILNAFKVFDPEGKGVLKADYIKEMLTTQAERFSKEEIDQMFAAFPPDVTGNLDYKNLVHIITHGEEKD

| SMILES | Activity at 1.0 uM (fractional shortening activation over basal) ([1]; 1.0 uM compound) | Activity at 10 uM (fractional shortening activation over basal) ([1]; 10 uM compound) | Myosin Activation (AC20) [2] | Activity at 3.0 uM (fractional shortening activation over basal) ([1]; 3.0 uM compound) |
| --- | --- | --- | --- | --- |
| CC(C)(C1CCN(C(=O)Nc2ccnnc2)CC1)S(=O)(=O)c1cccc(F)c1 [Compound 7, 4-(2-((3-fluorophenyl)sulfonyl)propan-2-yl)-N-(pyridazin-4-yl)piperidine-1-carboxamide] | ++ (++ represents fractional shorting activation values from 20% to 50% over basal) | ++ (++ represents fractional shorting activation values from 20% to 50% over basal) | +++ (+++ represents myosin activation value AC20 < 2 μM) |  |
| COc1ccc(S(=O)(=O)C(C)(F)C2CCN(C(=O)Nc3ccon3)CC2)cn1 (centres unmarked) [Compound 246, 4-(1-fluoro-1-((6-methoxypyridin-3-yl)sulfonyl)ethyl)-N-(isoxazol-3-yl)piperidine-1-carboxamide] |  |  | ++ (++ represents myosin activation value AC20 from 2 μM-5 μM) | +++ (+++ represents fractional shortening activation values greater than 50% over basal) |
